Assay results from patent publication EP0430485A2, “Quinoline compound” (priority 1989, dated 1991).
Counter-ions that a name gives are not always drawn.

These molecules were tested on scopolamine-induced amnesia. Details: rat, in vivo.
Type: in vivo, Wistar male rats
Description: In order to show effects of the compounds according to the present invention in more detail, a part of experimental examples relating to action against scopolamine-induced amnesia for step-through passive avoidance response in rats is shown below.
Wistar male rats of 7 to 8 weeks old were used to experiment after fasting for 12 hours. Rats were divided into groups with 8 rats per group and 1.5 mg/kg of scopolamine was intraperitoneally administered. After 30 minutes from the administration, rats were placed in a light compartment of a step-through type passive avoidance apparatus constituted by two compartments (25 × 10 × 25 cm of a light compartment and 30 × 30 × 30 cm of a dark compartment having a guillotine door and a floor grid for passing current) and a latent time by entering into a dark compartment was measured. The guillotine door was shut when a rat entered into the dark compartment and shock with 0.6 mA for 3 seconds was applied through the floor grid for acquisition trial. After acquisition trial, 10 mg/kg of each test compound was orally administered to rats and returned to their home cage. After 24 hours, rats were again placed in the light compartment at which the guillotine door was opened, a latent time by entering into the dark compartment was measured whereby presence or absence of improved effect of memory retention was judged.

Molecule	Latent time of memory retention
Nc1c2c(nc3ccccc13)CCCC2 [Tacrine, 9-amino-1,2,3,4-tetrahydroacridine, reference compound]	58 s

Same assay, conditions: rats, scopolamine 1.5 mg/kg intraperitoneally; test compound 10 mg/kg p.o. after acquisition trial; latent time by entering the dark compartment measured after 24 hours; 8 rats per group

Molecule	Latent time of memory retention
4-Amino-5-fluoro-1-isoamyl-2,3-dihydro-1H-pyrrolo[2,3-b]quinoline·trihydrate [Example 33]	151 s
CN1CCc2c1nc1ccccc1c2N [Example 1, 4-amino-1-methyl-2,3-dihydro-1H-pyrrolo[2,3-b] quinoline]	128 s
CCCCCCCCCCCCN1CCCCc2c1nc1cccc(F)c1c2N [Example 3, 6-amino-1-dodecyl-7-fluoro-2,3,4,5-tetrahydro-1H-azepino[2,3-b]quinoline]	140 s
Nc1c2c(nc3ccccc13)N(Cc1ccccc1)CCCC2 [Example 10, 6-Amino-1-benzyl-2,3,4,5-tetrahydro-1H-azepino[2,3-b]-quinoline·hydrochloride]	188 s
Nc1c2c(nc3cccc(Cl)c13)N(Cc1ccccc1)CCCC2 [Example 11, 6-Amino-1-benzyl-7-chloro-2,3,4,5-tetrahydro-1H-azepino[2,3-b]quinoline·hydrochloride]	163 s
Nc1c2c(nc3cccc(F)c13)NCCC2 [Example 20, 5-amino-6-fluoro-1,2,3,4-tetrahydrobenzo[d] [1,8]naphthylidine]	59 s
Nc1c2c(nc3cccc(Cl)c13)NCCC2 [Example 21, 5-amino-6-chloro-1,2,3,4-tetrahydrobenzo[b] [1,8]naphthylidine]	117 s
Nc1c2c(nc3ccccc13)NCC2 [Example 22, 4-Amino-2,3-dihydro-1H-pyrrolo[2,3-b]quinoline·hydrobromide]	78 s
CC(=O)N1CCCc2c1nc1cccc(F)c1c2N [Example 24, 1-acetyl-5-amino-6-fluoro-1,2,3,4-tetrahydrobenzo[b] [1,8]naphthylidine]	168 s
Nc1c2c(nc3cccc(F)c13)N(C(=O)c1ccccc1)CCC2 [Example 26]	84 s
Nc1c2c(nc3cc(Cl)ccc13)NCCC2 [Example 31, 5-Amino-8-chloro-1,2,3,4-tetrahydrobenzo[b] [1,8]naphthylidine]	72 s
